The text below walks through data of BindingDB's records for PubMed 2905001 (Mcneil Pharmaceutical, 1988).

The target in assay [1] is Sodium-dependent dopamine transporter (Rattus norvegicus, UniProt P23977).
Assay [2] deals with 5-hydroxytryptamine receptor 2A (Rattus norvegicus, UniProt P14842).
The target in assay [3] is Sodium-dependent serotonin transporter (Rattus norvegicus, UniProt P31652).
Assay [4] addresses Norepinephrine transporter (Rattus norvegicus, UniProt Q9JIA2).
The target of assay [5] is T1, Alpha-1A adrenergic receptor (Rattus norvegicus, UniProt P43140).
T1 sequence (P43140 whole entry): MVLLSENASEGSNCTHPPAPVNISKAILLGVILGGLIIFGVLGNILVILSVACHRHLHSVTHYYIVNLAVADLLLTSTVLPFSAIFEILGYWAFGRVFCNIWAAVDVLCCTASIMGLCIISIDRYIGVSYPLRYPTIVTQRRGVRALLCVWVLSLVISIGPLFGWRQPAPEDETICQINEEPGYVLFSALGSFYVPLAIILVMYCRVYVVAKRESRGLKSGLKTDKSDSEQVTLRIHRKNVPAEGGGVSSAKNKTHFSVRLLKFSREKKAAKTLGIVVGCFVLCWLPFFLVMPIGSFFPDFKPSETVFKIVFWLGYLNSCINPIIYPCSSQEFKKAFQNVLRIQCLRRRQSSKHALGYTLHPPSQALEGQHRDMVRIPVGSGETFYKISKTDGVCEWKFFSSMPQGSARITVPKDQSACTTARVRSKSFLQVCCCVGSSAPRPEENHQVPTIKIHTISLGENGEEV

SMILES strings stand for the structures. Where “and” joins values, the source holds several entries; their conditions need not be identical. Identical values can stand only once. Counter-ions that a name gives are not always drawn. A value given as a limit tells only on which side of the number the result lay.

5-hydroxytryptamine receptor 2A, sequence (P14842 whole entry): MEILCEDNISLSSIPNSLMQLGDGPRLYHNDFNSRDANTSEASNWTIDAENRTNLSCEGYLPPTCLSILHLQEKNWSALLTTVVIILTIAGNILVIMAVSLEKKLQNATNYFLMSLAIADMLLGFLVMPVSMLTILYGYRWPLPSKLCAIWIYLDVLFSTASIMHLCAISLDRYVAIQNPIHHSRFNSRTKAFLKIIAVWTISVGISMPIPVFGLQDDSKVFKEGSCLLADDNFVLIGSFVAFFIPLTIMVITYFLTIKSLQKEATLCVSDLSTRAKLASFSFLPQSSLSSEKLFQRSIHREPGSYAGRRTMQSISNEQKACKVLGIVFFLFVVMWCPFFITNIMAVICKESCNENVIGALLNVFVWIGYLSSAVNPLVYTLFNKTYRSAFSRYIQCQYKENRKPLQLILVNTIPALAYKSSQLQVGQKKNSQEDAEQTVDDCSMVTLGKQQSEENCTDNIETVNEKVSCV
Sodium-dependent dopamine transporter, sequence (P23977 whole entry): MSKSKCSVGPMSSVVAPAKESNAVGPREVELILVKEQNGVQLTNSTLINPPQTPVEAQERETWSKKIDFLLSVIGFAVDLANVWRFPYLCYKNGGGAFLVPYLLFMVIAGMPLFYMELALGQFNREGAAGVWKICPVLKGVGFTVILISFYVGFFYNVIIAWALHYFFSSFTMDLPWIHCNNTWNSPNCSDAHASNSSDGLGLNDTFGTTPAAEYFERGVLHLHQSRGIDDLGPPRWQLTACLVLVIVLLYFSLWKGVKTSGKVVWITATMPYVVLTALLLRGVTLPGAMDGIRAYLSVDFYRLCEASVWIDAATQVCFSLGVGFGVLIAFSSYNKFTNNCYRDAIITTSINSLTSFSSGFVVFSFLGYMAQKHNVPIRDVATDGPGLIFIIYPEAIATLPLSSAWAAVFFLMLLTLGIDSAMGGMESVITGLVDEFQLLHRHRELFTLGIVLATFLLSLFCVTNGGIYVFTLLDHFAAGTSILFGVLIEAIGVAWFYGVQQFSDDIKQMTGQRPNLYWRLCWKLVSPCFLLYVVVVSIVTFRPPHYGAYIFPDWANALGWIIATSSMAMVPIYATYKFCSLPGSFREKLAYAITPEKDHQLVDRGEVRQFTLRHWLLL
Sodium-dependent serotonin transporter, sequence (P31652 whole entry): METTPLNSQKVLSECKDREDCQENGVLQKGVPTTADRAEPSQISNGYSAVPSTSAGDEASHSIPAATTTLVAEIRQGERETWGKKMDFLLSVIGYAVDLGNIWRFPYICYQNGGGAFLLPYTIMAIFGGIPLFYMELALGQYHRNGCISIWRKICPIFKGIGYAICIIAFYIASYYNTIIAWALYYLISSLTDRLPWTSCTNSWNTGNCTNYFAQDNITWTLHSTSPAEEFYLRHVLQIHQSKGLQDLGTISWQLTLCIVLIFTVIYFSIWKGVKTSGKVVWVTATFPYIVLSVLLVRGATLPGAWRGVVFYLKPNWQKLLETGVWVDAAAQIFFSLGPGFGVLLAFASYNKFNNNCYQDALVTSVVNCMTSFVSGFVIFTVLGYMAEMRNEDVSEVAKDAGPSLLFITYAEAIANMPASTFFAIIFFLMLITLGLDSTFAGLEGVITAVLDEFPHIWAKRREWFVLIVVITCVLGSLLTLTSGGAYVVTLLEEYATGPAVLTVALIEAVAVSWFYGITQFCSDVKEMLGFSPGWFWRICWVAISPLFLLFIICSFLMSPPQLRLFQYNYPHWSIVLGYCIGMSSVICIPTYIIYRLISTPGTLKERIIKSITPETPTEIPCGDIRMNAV

What is called Ki is a measure of affinity in units of concentration, obtained from inhibition or displacement. `c1ccc2c(CCC3CCNCC3)c[nH]c2c1`: the Ki in assay [1] came out at 1040 nM; in assay [2], 50.2 nM; in assay [3], 1.72 nM; in assay [4], 513 nM.

Regarding `CSc1ccc(C2CN3CCCC3c3ccccc32)cc1` (stereo unspecified), in assay [1], the inhibition constant (Ki) came to 69.8 nM.

Turning to `O=c1n(CCCN2CCN(c3cccc(Cl)c3)CC2)nc2ccccn12` [2-{3-[4-(3-chlorophenyl)piperazin-1-yl]propyl}[1,2,4]triazolo[4,3-a]pyridin-3(2H)-one], the Ki in assay [1] is more than 10000 nM; in assay [5], 84 nM; in assay [4], 3800 nM.

As for `COCCCC/C(=N\OCCN)c1ccc(C(F)(F)F)cc1` [(1E)-5-methoxy-1-[4-(trifluoromethyl)phenyl]pentan-1-one O-(2-aminoethyl)oxime], the figures for the Ki in assay [1] and in assay [4] were more than 10000 nM and 299 nM, respectively.

In the case of `COc1ccc(OC[C@H]2CN(C)CC[C@@H]2c2ccccc2)cc1` [(3R,4S)-3-(4-Methoxy-phenoxymethyl)-1-methyl-4-phenyl-piperidine], the Ki in assay [1] is 1040 nM.

Turning to `COCCCCC(=NOCCN)c1ccc(Cl)cc1` [CAS_68717], the inhibition constant Ki in assay [1] worked out at 462 nM; in assay [2] it was 1000 nM; in assay [3] it was 2.76 nM; in assay [4], 6.6 nM.

Consider `CN(C)CCCN1c2ccccc2CCc2ccc(Cl)cc21` [CLOMIPRAMINE HYDROCHLORIDE], for which affinity in assay [1] was put at a Ki of 3810 nM.

Take `CSc1ccc([C@H]2CN3CCC[C@H]3c3ccccc32)cc1` [McN-5652-X-68]: the figures for the Ki in assay [2] and in assay [5] were 142 nM and 274 nM, respectively.

In the case of `CSc1ccc([C@@H]2CN3CCC[C@@H]3c3ccccc32)cc1` [McN-5652-Z-68], the Ki is 939 nM and 208 nM in assay [2]; 213 nM and 314 nM in assay [5].

`CN(C)C/C=C(/c1ccc(Br)cc1)c1cccnc1` [cis-[3-(4-Bromo-phenyl)-3-pyridin-3-yl-allyl]-dimethyl-amine;HCl]: the Ki in assay [1] is more than 10000 nM.
